# Assay results: article PMC9696085, “Fully Symmetric Cyclodextrin Polycarboxylates: How to Determine Reliable Protonation Constants from NMR Titration Data” (International Journal of Molecular Sciences, 2022)
# “And” between values parts separate entries of the source, which are not always exact repeats. Equal entries are not always repeated. Where two headings read alike, the source gives them in different places.
# Assay: 1H NMR-pH titration, protonation constants
# Assay type: physicochemical
# Conditions: for pKa: H2O:D2O = 9:1 solvent mixture; for log k: site-binding model without any pair-interactivity parameters (unsatisfactory fit)
# Protocol: The pH meter readings were recorded using a Metrohm pH meter, equipped with a Metrohm 6.0234.110 combined glass electrode. A four-point calibration using pH 2.00, pH 4.00, pH 7.00 and pH 11.00 standard buffer solutions were performed directly before pH adjustments. The pH measurements were performed in 25 mL vessels with proper stirring before transferring 600 μL sample solutions into the NMR tubes. Solutions were prepared in the pH range of 1.50–8.70 with 0.30 increments using 0.9 M, 0.5 M and 0.1 M sodium hydroxide and hydrochloric acid solutions in H2O:D2O = 9:1.
# For structural characterizations of CD derivatives in D2O, a 600 MHz Varian DDR NMR spectrometer equipped with a 5 mm inverse-detection gradient probe or a 400 MHz Varian Mercury Plus spectrometer equipped with a 5mm Varian 400 Automation Triple Resonance Broadband Pulsed Field Gradient probe was used. For NMR-pH titrations, the same instruments were used. The pH-dependent series of ^1H NMR spectra were recorded in a solvent mixture of H2O:D2O = 9:1 by volume, where the constant ionic strength and the buffer capacity were adjusted using 0.05 M sodium chloride and 0.05 M acetic acid-d4. An appropriate amount of CD was weighed to obtain a 1 mM solution and finally one drop of methanol was added as a chemical shift reference (3.310 ppm). The water resonance was diminished by the dpfgse pulse sequence or presaturation. All the spectra were processed using the MestReNova v9.0.1-13254 (Mestralab Research, S.L., Santiago de Compostela, Spain) software.
# The standard macroscopic evaluation of NMR-pH titration curves (Equation (3) in Section 2.2) was performed with the following software tools: Microcal Origin Pro 8 (OriginLab Corp., Northampton, MA, USA), HypNMR2018 [38], OPIUM [39] and home-written R scripts (R version 4.1.2, The R Foundation, Vienna, Austria) using the nls module. The equidistant macroscopic (Equation (8)) and Q-fitting (Equations (4) and (11)) models were fitted both by Origin and our R-scripts to verify their equivalent performance regarding statistical description of the parameter estimates. The microscopic cluster expansion model in Section 2.5 requires summation of >100 variables which is unfeasible in the form of an explicit model function required by commercial data-fitting software like Origin. The enumeration of microspecies was therefore accomplished in a custom-written R script. To assess the robustness of our data-fitting model as well as the error propagation of the optimized log k and pε parameters to the derived log K macroconstants, Monte Carlo simulations on >1000 replicates were performed in R.
# [1] = ED macro or Q-fitting evaluation, ? = physically unrealistic, SD in parentheses
# [2] = ED macro or Q-fitting evaluation, H2O:D2O = 9:1, 0.05 M NaCl, SD in parentheses
# [3] = from ED macro or Q-fitting macroconstants by Eq. 18
# [4] = from ED macro or Q-fitting macroconstants by Eq. 18, ? = physically unrealistic
# [5] = site-binding (SB) microscopic evaluation
# [6] = site-binding (SB) microscopic evaluation, converted from log kA and pε, errors by Monte Carlo
# [7] = site-binding model with two interactivity parameters, standard deviation 138, overparametrized
# [8] = converted from optimized microscopic basicity parameters (site-binding model)
compound,measurement,setting,value
"O=C(O)CCSC[C@H]1O[C@@H]2O[C@H]3[C@H](O)[C@@H](O)[C@@H](O[C@H]4[C@H](O)[C@@H](O)[C@@H](O[C@H]5[C@H](O)[C@@H](O)[C@@H](O[C@H]6[C@H](O)[C@@H](O)[C@@H](O[C@H]7[C@H](O)[C@@H](O)[C@@H](O[C@H]1[C@H](O)[C@H]2O)O[C@@H]7CSCCC(=O)O)O[C@@H]6CSCCC(=O)O)O[C@@H]5CSCCC(=O)O)O[C@@H]4CSCCC(=O)O)O[C@@H]3CSCCC(=O)O [Suα-CD, sualphadex]",log K4,[1],4.70 (0.14)
same,log K6,[1],3.77 (0.07)
same,log K1,[2],6.43 (0.07)
same,log K2,[2],5.79 (0.09)
same,log K3,[2],5.26 (0.11)
same,pKa,"converted from optimized microscopic basicity parameters (site-binding model), read-out: macroscopic pKa, 1st of the set",3.84
same,pKa,"converted from optimized microscopic basicity parameters (site-binding model), read-out: macroscopic pKa, 2nd of the set",4.35
same,pKa,"converted from optimized microscopic basicity parameters (site-binding model), read-out: macroscopic pKa, 3rd of the set",4.81
same,pKa,"converted from optimized microscopic basicity parameters (site-binding model), read-out: macroscopic pKa, 4th of the set",5.31
same,pKa,"converted from optimized microscopic basicity parameters (site-binding model), read-out: macroscopic pKa, 5th of the set",5.78
same,pKa,"converted from optimized microscopic basicity parameters (site-binding model), read-out: macroscopic pKa, 6th of the set",6.28
same,log k¯1 (averaged microconstant),[3],5.65 (0.07)
same,log k¯2 (averaged microconstant),[3],5.39 (0.09)
same,log k¯3 (averaged microconstant),[3],5.13 (0.12)
same,log k¯6 (averaged microconstant),[4],4.55 (0.07)
same,log k¯1 (averaged microconstant),[5],5.51 (0.02)
same,log k¯2 (averaged microconstant),[5],5.38 (0.02)
same,log k¯3 (averaged microconstant),[5],5.18 (0.02)
same,log k¯4 (averaged microconstant),[5],4.94 (0.02)
same,log k¯5 (averaged microconstant),[5],4.75 (0.02)
same,log k¯6 (averaged microconstant),[5],4.62 (0.02)
same,log K1,[6],6.28 (0.02)
same,log K2,[6],5.78 (0.02)
same,log K3,[6],5.31 (0.02)
same,log K4,[6],4.81 (0.02)
same,log K5,[6],4.35 (0.02)
same,log K6,[6],3.84 (0.02)
same,log kA,"site-binding model with two interactivity parameters (pε12 and pε13), overparametrized",5.63 (7)
same,pε12,[7],0.28
same,pε13,[7],0.28
same,log k,,5.049
"O=C(O)CCSC[C@H]1O[C@@H]2O[C@H]3[C@H](O)[C@@H](O)[C@@H](O[C@H]4[C@H](O)[C@@H](O)[C@@H](O[C@H]5[C@H](O)[C@@H](O)[C@@H](O[C@H]6[C@H](O)[C@@H](O)[C@@H](O[C@H]7[C@H](O)[C@@H](O)[C@@H](O[C@H]8[C@H](O)[C@@H](O)[C@@H](O[C@H]9[C@H](O)[C@@H](O)[C@@H](O[C@H]1[C@H](O)[C@H]2O)O[C@@H]9CSCCC(=O)O)O[C@@H]8CSCCC(=O)O)O[C@@H]7CSCCC(=O)O)O[C@@H]6CSCCC(=O)O)O[C@@H]5CSCCC(=O)O)O[C@@H]4CSCCC(=O)O)O[C@@H]3CSCCC(=O)O [Suγ-CD, sugammadex, reference compound]",log K4,[1],5.28 (0.22)
same,log K5,[1],5.14 (0.22)
same,log K6,[1],4.59 (0.17)
same,log K1,[2],6.68 (0.08)
same,log K2,[2],6.17 (0.12)
same,log K3,[2],5.88 (0.16)
same,log K8,"ED macro or Q-fitting evaluation, SD in parentheses",3.78 (0.07)
same,"macroscopic pKa, 1st of the set",[8],3.83
same,"macroscopic pKa, 2nd of the set",[8],4.28
same,"macroscopic pKa, 3rd of the set",[8],4.65
same,"macroscopic pKa, 4th of the set",[8],5.03
same,"macroscopic pKa, 5th of the set",[8],5.43
same,"macroscopic pKa, 6th of the set",[8],5.81
same,"macroscopic pKa, 7th of the set",[8],6.18
same,"macroscopic pKa, 8th of the set",[8],6.64
same,log k¯1 (averaged microconstant),[3],5.77 (0.08)
same,log k¯2 (averaged microconstant),[3],5.63 (0.12)
same,log k¯3 (averaged microconstant),[3],5.58 (0.16)
same,log k¯8 (averaged microconstant),[3],4.69 (0.07)
same,log k¯4 (averaged microconstant),[4],5.18 (0.22)
same,log k¯5 (averaged microconstant),[4],5.24 (0.22)
same,log k¯6 (averaged microconstant),[4],4.89 (0.17)
same,log k¯1 (averaged microconstant),[5],5.73 (0.02)
same,log k¯2 (averaged microconstant),[5],5.64 (0.02)
same,log k¯3 (averaged microconstant),[5],5.51 (0.02)
same,log k¯4 (averaged microconstant),[5],5.33 (0.01)
same,log k¯5 (averaged microconstant),[5],5.13 (0.01)
same,log k¯6 (averaged microconstant),[5],4.95 (0.02)
same,log k¯7 (averaged microconstant),[5],4.82 (0.02)
same,log k¯8 (averaged microconstant),[5],4.73 (0.02)
same,log K1,[6],6.64 (0.02)
same,log K2,[6],6.18 (0.02)
same,log K3,[6],5.81 (0.02)
same,log K4,[6],5.43 (0.01)
same,log K5,[6],5.03 (0.01)
same,log K6,[6],4.65 (0.02)
same,log K7,[6],4.28 (0.02)
same,log K8,[6],3.83 (0.02)
same,pε12 = averaged interactivity parameter pε¯,site-binding model with a single interactivity parameter,0.503
same,log kA (carboxylate core microconstant),site-binding model with a single interactivity parameter pε12 (pε¯),5.735 and 5.73
same,log k,,5.22
